{
  "source": "ChEMBL document CHEMBL1155523",
  "about": "“Synthesis and biological activity of alpha-L-fucosyl ceramides, analogues of the potent agonist, alpha-D-galactosyl ceramide KRN7000” (2010)",
  "data": [
    {"tested_on": "iNKT", "assay": "Effect on immune response in human iNKT cells stimulated by antigen-presenting CD1d assessed as cellular expansion at 250 nM after 8 days by FACSCalibur flow cytometry relative to control", "format": "functional", "units": {"Activity": "%"}, "values": [
      {"molecule": "CCCCCCCCCCCCCCCCC(O)C(=O)N[C@@H](CO[C@@H]1O[C@@H](C)[C@@H](O)[C@H](O)[C@@H]1O)[C@H](O)[C@H](O)CCCCCCCCCCCCCC", "note": "(stereo not given in full)", "Activity": 2.9},
      {"molecule": "CCCCCCCCCCCCCCCCCCCCCCCCCC(=O)N[C@@H](CO[C@@H]1O[C@@H](C)[C@@H](O)[C@H](O)[C@@H]1O)[C@H](O)[C@H](O)CCCCCCCCCCCCCC", "Activity": 12},
      {"molecule": "CCCCC/C=C\\C/C=C\\CCCCCCCCCC(=O)N[C@@H](CO[C@@H]1O[C@@H](C)[C@@H](O)[C@H](O)[C@@H]1O)[C@H](O)[C@H](O)CCCCCCCCCCCCCC", "Activity": 0.56},
      {"molecule": "CCCCCCCCCCCCCCCCCCCCCCCC(=O)N[C@@H](CO[C@@H]1O[C@@H](C)[C@@H](O)[C@H](O)[C@@H]1O)[C@H](O)[C@H](O)CCCCCCCCCCCCCC", "Activity": 1.1},
      {"molecule": "CCCCCCCCCCCCCCCCCCCCCCCCCC(=O)N[C@@H](CO[C@H]1O[C@H](CO)[C@H](O)[C@H](O)[C@H]1O)[C@H](O)[C@H](O)CCCCCCCCCCCCCC", "note": "[RGI-7000]", "Activity": 26}
    ]}
  ]
}
